What is called melting point is the temperature of the solid-liquid transition.

Consider 90 molecules from a melting point compilation (Tetko et al.; mined from patent text by program, amines drawn as free bases though some values may be those of a salt).

Structures are written as SMILES. Bounds are passed on as bounds.

Regarding `N[C@@H](Cc1ccc(OCc2ccccc2)cc1)C(=O)NCCN1CCCCC1`, the melting point fell in the range of 58 to 61 °C.
The molecule `O=C(Nc1ccsc1)c1ccccc1` returned a melting point of 155 to 156 °C.
Molecule `COc1ccc(C=CCN2CCC3(CC2)CN(C(=O)c2ccnc(Cl)c2)c2ccc(Cl)cc23)cc1` registered a melting point of 83 to 85 °C.
`O=C=Nc1ccc(OCC(=O)OCCOC(=O)COc2ccc(N=C=O)cc2)cc1` had a melting point of 96 to 98 °C.
`CC(=O)C1CC2=C(CO1)C(=O)c1ccc(O)cc1C2=O` (stereo not given) returned a melting point of 169 to 170 °C.
`COc1cccc2c1OC(CO)CN2C(=O)OC(C)(C)C` (stereo not given) registered a melting point of 65 to 68 °C.
The result for `CCc1nc2c(cnn2CC)c(NC2CCOCC2)c1CNC(=O)c1cccc(C(=O)NCc2cc(Cl)cc(-c3cccc(CN4CCNC(C)C4)c3)c2)c1` (stereo not given) reads 119 to 121 °C; that for `O=C(Cc1ccncc1)NCc1cccc2c1C(=O)N(C1CCC(=O)NC1=O)C2=O` (stereo not given), 294 to 296 °C.
Molecule `CNC(=O)CC1=CC2(CCCC2)c2ccc(Cl)cc21` came in with a melting point of 190 °C.
Turning to `CNC(=S)NCCN1CCC(Nc2nc3cncnc3n2Cc2ccc(F)cc2)CC1`, the melting point was 206 °C.
For `CCOC(=O)[C@H](Cc1c[nH]c2ccccc12)NC(=O)OCc1ccccc1`, the melting point is 80 to 83 °C.
Molecule `COc1cc2c(cc1OC)C(c1ccc([N+](=O)[O-])cc1)NN(C1=NC(=O)C(C)S1)C(C)C2` (stereo not given) had a melting point of 213 to 214 °C.
Regarding `C[C@H]1Oc2ccc(F)cc2NC(=O)[C@H]1N`, the melting point lay within 173 to 177 °C.
`CC(CC(=O)c1ccc(C(N)=S)cc1)C(=O)N1CCC(OCC(=O)OC(C)(C)C)CC1` (racemic) gave a melting point of 152 to 155 °C.
Regarding `CN(C)c1ccc(S(=O)(=O)n2c(CCCC(=O)O)cc3nc(Cl)ccc32)cc1`, the melting point worked out at 76 °C.
As for `NNC(=S)NCc1ccc([N+](=O)[O-])cc1`, the melting point is 196 to 198 °C.
Turning to `CCCc1nccn1Cc1ccc2c(c1)Cc1c(-c3ccsc3)n[nH]c1-2`, the melting point was in the range of 113 to 117 °C.
The result for `Clc1cc2oc3ccccc3c2nn1` reads 122 °C; that for `CC1=NCC2CC(=O)N(c3ccccc3)c3cc(Cl)ccc3N12` (stereo not given), 248 to 251 °C; that for `CN(C)C1CCC(Nc2nc3cc(Cl)c(Cl)cc3nc2-c2cccnc2)CC1` (stereo not given), 158 to 161 °C.
Regarding `COc1ccnc(CCc2nc3cc(-c4ccc(S(=O)(=O)N5CCN(C(C)=O)CC5)cc4)cnc3[nH]2)c1`, the melting point was 138 to 140 °C.
With `CC(=S)Nc1ccc(-c2nc3ccccc3s2)cc1`, the melting point was 222 to 223 °C.
As to `CCCCN1CCCC1CNC(=O)c1cc(S(N)(=O)=O)cc2c1OC(C)C2` (stereo not given), the melting point is 170 °C.
With `CS(=O)(=O)CCCC(=O)NNC(=O)N1Cc2ccccc2Oc2ccc(Cl)cc21`, the melting point is 198 to 199 °C.
`C=CCCCc1cc(-c2ccc(F)cc2)nc(C)n1`: the melting point lay within 44.5 to 45.5 °C.
Take `Cc1cccc(C)c1C1CCN(Cc2cc3ccccc3[nH]2)CC1`: the melting point lay within 128 to 130 °C.
For `COC(=O)CCCC(=O)c1ccco1`, the melting point was determined as 42.5 °C.
Take `Cc1ccc2c(c1)c(=O)n1nc(C(=O)O)cc1n2C`: the melting point is 269 °C.
In turn, `CC(C)(C)c1nc2cc(N3CCN(c4ccccc4)CC3)c([N+](=O)[O-])cc2s1` registered a melting point of 152 to 155 °C.
As to `O=c1[nH]c2sc3ccc(Cl)cc3c2[nH]c1=O`, the melting point was over 340 °C.
`CN1C(=O)NC(Cc2ccccc2)C1=O` (stereo not given): the melting point was found to be 172 °C.
Then `Cc1cc(C)cc(C(=O)N2CCC(N3CCC(OC(=O)c4cc(Cl)cc(Cl)c4)CC3)CC2Cc2ccccc2)c1` (stereo not given), with 83.3 °C; and `COc1cccc2c1C=C(C(=O)O)C(C(F)(F)F)O2` (stereo not given), with 204 to 207 °C.
The result for `CC(=O)OCC=C(C)C=CC=C(C)C=O` reads 71 to 72 °C.
In turn, `N#Cc1c(N2CCN(C(=O)C3CCCS3)CC2)c2ccccc2n(Cc2ccc(F)cc2)c1=O` (stereo not given) came in with a melting point of 133 to 140 °C.
In turn, `CN1N=C2C(=Cc3ccccc3)CNCC2C1c1ccccc1` (stereo not given) returned a melting point of 115 to 117 °C.
`CC1CCC2(C)C(=CCC3C4CC(O)C(=O)C4(C)CCC32)C1` (stereo not given) came in with a melting point of 166 to 168 °C.
As for `COc1ccc2cc(Cc3ccccc3)sc2c1`, the melting point is 60 to 61 °C.
Consider `CCc1ccc(-c2ccccc2)cc1O`, for which the melting point lay within 62 to 65 °C.
The molecule `O=c1ccn(-c2ccc(F)cc2)nc1-c1ccnn1-c1ccccc1` returned a melting point of 252 to 253 °C.
As for `NC(=O)C1=C(C(=O)Nc2ccc(Cl)cc2F)CCCC1`, the melting point was 150 to 151 °C.
Regarding `CSc1ccc(C(=O)Nc2ccccc2)cc1Nc1cccc(C(F)(F)F)c1`, the melting point fell in the range of 169 to 170 °C.
With `COC(=O)c1c(Cn2cncn2)nc2cc(OC)c(OC)cc2c1-c1ccc(OC)c(OC)c1`, the melting point was in the range of 218 to 220 °C.
For the molecule `COc1ccccc1-c1noc2ccc([N+](=O)[O-])cc12`, the melting point fell in the range of 170 to 171 °C.
The result for `C=CCOc1ccc2oc(C(=O)OCC)cc2c1` reads 34 to 36 °C; that for `CC(C)NC(=O)C1CC(=O)N(Cc2ccccc2)C1` (stereo not given), 122 to 124 °C.
As to `CCOC(=O)N1CCCCN1C(=S)Cl`, the melting point lay within 160 to 162 °C.
In the case of `O=C1NC(=O)C(Cc2cc(=O)n(Cc3ccc(Cl)cc3)c3ccccc23)S1` (stereo not given), the melting point was in the range of 142 to 144 °C.
Molecule `CCOC(=O)CC(c1ccc(OC)cc1)N1C(=O)c2ccccc2C1=O` (stereo not given) displayed a melting point of 32 °C.
Take `COc1ccc(C2=NN(C3CCN(S(=O)(=O)c4ccc(C)cc4)CC3)C(=O)CC2)cc1OC`: the melting point is 179 to 184 °C.
The result for `COc1cc(-c2nc(C)nn2C)cc2oc(=O)c(C)c(C)c12` reads 180 °C.
Regarding `Cc1oc(-c2ccccc2)nc1CCOc1ccc(CC2SC(=O)NC2=O)cc1` (stereo not given), the melting point lay in the range of 113 to 114 °C.
As to `O=C(Oc1cc(OC(=O)c2ccc(O)c(O)c2)c2ccccc2c1)c1ccc(O)c(O)c1`, the melting point lay in the range of 79 to 81 °C.
`COC(=O)C(C)(C)S(=O)(=O)N1CCC(c2ccc(-c3nccs3)c(C)c2)CC1` had a melting point of 111 to 114 °C.
Then `COc1cc(CC(=O)O)ccc1OCCNC(=O)C1Cc2ccccc2N1S(=O)(=O)c1ccc(-c2cc(C(F)(F)F)ccc2Cl)cc1` (stereo not given), with 74 to 76 °C; and `Cn1c(=O)c(Cl)nc2ccccc21`, with 124 to 130 °C; and `NC(=O)N(O)C[C@H]1C[C@@H](c2ccccc2)C1`, with 100 °C.
Molecule `CC(C)(C)SC1CC(=O)N1CC(=O)OCc1ccc([N+](=O)[O-])cc1` (stereo not given) gave a melting point of 82.5 to 84 °C.
Turning to `CC(=O)C=Cc1c(C)c(C)c(C)c2ccoc12`, the melting point stood at 99 °C.
With `CC1c2cnc3ccc(O[Si](C)(C)C(C)(C)C)cc3c2C(CO[Si](C)(C)C(C)(C)C)C(O)C1O` (stereo not given), the melting point lay within 206 to 209 °C.
As for `Cc1sc(C(=O)O)c2c1-c1c(cnn1CC(F)(F)F)CC2`, the melting point is 250 to 251 °C.
As to `CCOC(=O)c1c(O)c2cccnc2n(CC)c1=O`, the melting point was in the range of 120 to 122 °C.
The result for `S=C(Nc1ccccc1)N(Cc1ccc(Cl)cc1)C1CCCC1` reads 129 to 132 °C.
In turn, `CCN(CC)C(=O)c1cc(OC)c(OC)cc1-c1c(C(=O)N(CC)CC)ccc2c1OCO2` gave a melting point of 148 to 149 °C.
`CCCOc1ccccc1-c1nc(C)cc(O)n1` gave a melting point of 109 to 110 °C.
Turning to `COc1ccc(C2=NN(C(=O)c3cccnc3)CC2)cc1`, the melting point is 132 to 134 °C.
With `O=C1c2ccccc2Cc2c(O)cccc21`, the melting point fell in the range of 230 to 233 °C.
In the case of `CC(=O)N[C@@H](C)COc1cc2oc(-c3ccc(OC[C@H]4CC4(F)F)cc3)nc2cn1`, the melting point stood at 205 °C.
Then `N#CCc1ccc(Cl)nc1`, with 80 °C; and `O=S(=O)(NC1CCCCC1)c1ccc2c(c1)S(=O)(=O)NC1CCCN21` (stereo not given), with 195 to 197 °C.
Take `CCCC1C(=O)N(S(=O)(=O)c2ccc3ccccc3c2)C2CCN(C(=O)CN3CCCCC3)C12` (stereo not given): the melting point lay within 161 to 163 °C.
Molecule `CS(=O)(=O)c1ccc(/C(=C\C2CCCC2)C(=O)O)cc1` registered a melting point of 200 to 202 °C.
In turn, `CNC(=O)c1cc2c(nc(C)n2C)c2c1CCC(OC)(c1ccccc1)O2` (stereo not given) came in with a melting point of 237 to 239 °C.
Then `CC(=O)OCCOCn1c(Cl)nc2c(Cl)c(Cl)c(Cl)c(Cl)c21`, with 119 °C; and `Nc1nnc(-c2cccc(F)c2F)c(N)n1`, with 229 to 230 °C.
`CC(O)Cc1ccc2oc(=O)[nH]c2c1` (stereo not given) yielded a melting point of 133 to 134 °C.
The result for `CN1C(=O)N(CC(COc2ccc(-c3ccncc3)cc2)N(O)C=O)C(=O)C1(C)C` (stereo not given) reads 217 to 218 °C; that for `CCOCc1cc(OC)c(-c2ccc(C[C@H](NC(=O)c3c(F)cccc3F)C(=O)O)cc2)c(OC)c1`, 154 to 155 °C; that for `COc1cc2cc(CO)c(CO)c(C)c2cc1OC`, 180 to 182 °C.
With `O=C1CN(C(=O)CN2CC(c3ccc(F)cc3)CC2=O)CCN1` (stereo not given), the melting point lay within 200 to 203 °C.
The molecule `O=C(c1ccc2cc(Cl)ccc2c1)C1CCNCC1` returned a melting point of 98 to 100 °C.
The molecule `O=C(O)c1ccc(C(=O)N2CCCc3ccccc32)cc1` showed a melting point of 181 to 183 °C.
`CC(C)CC(=O)N[C@H]1CC[C@H](CCN2CCC(c3cccc4c3CCO4)CC2)CC1`: the melting point was 197 °C.
Regarding `O=C(O)/C=C/c1ccc(-c2nc3c(=O)n(CC4CCC4)c(=O)n(CC4CCC4)c3[nH]2)cc1`, the melting point was over 300 °C.
The result for `Cn1ncc(C(=O)N2CCC2)c1C(=O)Nc1ccn2nc(-c3ccccc3)nc2c1` reads 243 to 245 °C.
Regarding `O=C(N[C@@H](Cc1ccc(NC(=O)c2c(Cl)cccc2Cl)cc1)C(=O)O)OCC1c2ccccc2-c2ccccc21`, the melting point was in the range of 230 to 234 °C.
For `Cc1nc(Nc2nc3cccc(C)c3[nH]2)nc(O)c1CC(=O)O`, the melting point is over 300 °C.
On to `CCOCC1=C(C(=O)OCC)C(c2ccc(OC)c(F)c2)C(C(=O)OCC)=C(C)N1` (stereo not given), for which the melting point turned out to be 120 °C.
Molecule `CC(C)(Cc1ccccc1)C(=O)Cn1cncn1` came in with a melting point of 79 °C.
In turn, `COC(=O)C(Cc1ccc(OC)c(C(=O)NCc2ccc(C(F)(F)F)cc2)c1)SC` (stereo not given) yielded a melting point of 127 to 128 °C.
